# Results as given in ChEMBL document CHEMBL1806473, “Structure-based optimization of click-based histone deacetylase inhibitors” (Eur J Med Chem, 2011).
# Molecular target: Histone deacetylase
# Experiment: Inhibition of HDAC in human HeLa cells using Ac-Arg-Gly-Lys(Ac)-AMC as fluorescent substrate after 20 mins by fluorescence assay
# Type: cell-based
row,IC50,Compound
1,55 nM,CCC(/C=C/c1ccccc1)n1cc(/C=C/C(=O)NO)nn1 (stereo not drawn)
2,132 nM,CCCC(/C=C/c1ccccc1)n1cc(/C=C/C(=O)NO)nn1 (stereo not drawn)
3,137 nM,CCCCC(/C=C/c1ccccc1)n1cc(/C=C/C(=O)NO)nn1 (stereo not drawn)
4,18 nM,CC(C)(C)C(/C=C/c1ccccc1)n1cc(/C=C/C(=O)NO)nn1 (stereo not drawn)
5,838 nM,CC(C)CC(/C=C/c1ccccc1)n1cc(/C=C/C(=O)NO)nn1 (stereo not drawn)
6,54 nM,O=C(/C=C/c1cn(C(/C=C/c2ccccc2)C2CCC2)nn1)NO (stereo not drawn)
7,115 nM,O=C(/C=C/c1cn(C(/C=C/c2ccccc2)C2CCCC2)nn1)NO (stereo not drawn)
8,90 nM,C=CCC(/C=C/c1ccccc1)n1cc(/C=C/C(=O)NO)nn1 (stereo not drawn)
9,171 nM,O=C(/C=C/c1cn(C(/C=C/c2ccccc2)Cc2nccs2)nn1)NO (stereo not drawn)
10,403 nM,O=C(/C=C/c1cn(C(/C=C/c2ccccc2)Cc2cccc(-c3ccccc3)c2)nn1)NO (stereo not drawn)
11,510 nM,O=C(/C=C/c1cn(C(/C=C/c2ccccc2)Cc2cccc(Oc3ccccc3)c2)nn1)NO (stereo not drawn)
12,111 nM,O=C(/C=C/c1cn(C(/C=C/c2ccccc2)Cc2cccc3ccccc23)nn1)NO (stereo not drawn)
13,94 nM,O=C(/C=C/c1cn(C(/C=C/c2ccccc2)Cc2ccc3ccccc3c2)nn1)NO (stereo not drawn)
